Measurements from patent US20250002475A1 (EPICS THERAPEUTICS, priority 2023, published 2025).
pIC50: −log10 of the molar value.

Assays:
Kasumi-1 cells = test: Kasumi-1 cellular viability assay (ATP-Lite, 72 h); assay type: cell-based; conditions: Homo sapiens, ATP-Lite luminescence, % viability relative to DMSO
How it was run: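 Viability was read by ATP-Lite One Step luminescence after 72 h compound treatment at 37 °C/5% CO2, normalised to DMSO control, with IC50 fitted from concentration-response. Cells were Kasumi-1 (AML FAB M2) at 15000 per well in RPMI-1640/10% FBS, 0.1% DMSO final.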

[1] = biological target: T1, recombinant METTL3/METTL14 complex (Homo sapiens, UniProt Q86U44); test: METTL3/14 Scintillation Proximity Assay (SPA), RNA methyltransferase activity; assay type: biochemical; conditions: 5.31 nM METTL3/14 complex, 250 nM RNA substrate, 1 μM 3H-SAM, 90 min; for compounds marked * best of the two separated forms
T1 construct: purchased Active Motif 311970; host or cells: Sf9 cells
T1 sequence (Q86U44 whole entry): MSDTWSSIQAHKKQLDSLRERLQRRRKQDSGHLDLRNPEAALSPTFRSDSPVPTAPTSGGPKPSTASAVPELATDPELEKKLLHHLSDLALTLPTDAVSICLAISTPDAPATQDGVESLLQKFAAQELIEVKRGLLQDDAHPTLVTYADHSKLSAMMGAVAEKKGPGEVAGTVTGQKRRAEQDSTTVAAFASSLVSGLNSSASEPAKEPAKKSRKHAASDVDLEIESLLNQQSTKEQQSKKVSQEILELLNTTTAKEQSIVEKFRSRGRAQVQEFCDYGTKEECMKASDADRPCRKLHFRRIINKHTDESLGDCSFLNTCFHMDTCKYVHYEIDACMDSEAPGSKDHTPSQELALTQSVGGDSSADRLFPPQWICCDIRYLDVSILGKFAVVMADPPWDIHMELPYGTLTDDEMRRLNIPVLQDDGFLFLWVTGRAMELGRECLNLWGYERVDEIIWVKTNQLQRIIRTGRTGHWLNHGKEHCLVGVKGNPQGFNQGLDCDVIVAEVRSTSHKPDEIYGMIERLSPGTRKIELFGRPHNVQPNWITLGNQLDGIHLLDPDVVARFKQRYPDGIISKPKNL
T1 sequence (Q9HCE5 whole entry partner): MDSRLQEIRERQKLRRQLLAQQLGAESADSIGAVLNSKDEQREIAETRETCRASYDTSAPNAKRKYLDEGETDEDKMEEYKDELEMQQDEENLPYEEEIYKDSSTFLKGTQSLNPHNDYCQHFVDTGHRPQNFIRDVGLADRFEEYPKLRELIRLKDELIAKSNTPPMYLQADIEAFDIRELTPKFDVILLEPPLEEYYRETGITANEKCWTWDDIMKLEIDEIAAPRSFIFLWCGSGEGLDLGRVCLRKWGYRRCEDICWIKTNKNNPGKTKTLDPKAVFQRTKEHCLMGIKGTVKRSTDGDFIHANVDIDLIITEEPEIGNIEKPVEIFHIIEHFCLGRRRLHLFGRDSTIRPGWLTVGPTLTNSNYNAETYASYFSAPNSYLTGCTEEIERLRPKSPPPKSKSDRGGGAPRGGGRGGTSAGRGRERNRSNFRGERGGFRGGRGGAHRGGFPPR

Caov-3 cells = test: Caov-3 cellular viability assay (ATP-Lite, 72 h); assay type: cell-based; conditions: Homo sapiens, ATP-Lite luminescence, % viability relative to DMSO
Protocol: Caov-3 cell line was purchased from ATCC (ATCC® HTB-75™). Cells were isolated from the ovary of a ovarian cancer patient.
Caov-3 cells are cultured in DMEM (ATCC 30-2002) containing 10% heat-inactivated and 0.22 μm filtered FBS (Gibco 10270-106). The cells are seeded at 2.5E+4cell/cm^2 within the recommended subcultivation ratio of 1:3 to 1:6, as stated on the certificate of analysis issues by the provider of the cells.
Cellular viability assay: Caov-3 cells were plated (50 μL) in 96-well cell culture microplates (PS, F-Bottom black, Cellstar, Greiner 655086) at final concentration of 10000 cells/well. The compounds of the invention were dissolved in DMSO, and a titration curve was generated at 1000× final concentration. Compounds were then diluted 500× in tissue culture medium (RPMI-1640, 10% FBS). Then 50 μl of test compound were added to Caov-3 cells in a final DMSO concentration of 0.1%, final volume 100 μl. A gas permeable sealing membrane was applied to the plate to prevent evaporation (Breathe-Easy sealing membrane, Sigma Z380059-1PK) and cells were incubated for 72 h at 37° C., 5% CO2, 80% RH. After 72 h of treatment, the plates were taken out of the incubator and left for a few minutes at room temperature. 100 μl of the reconstituted reagent ATP-Lite One Step (Perkin Elmer, 6016739) were added to each well. The plates were shaken for 2 min at 700 rpm and placed in the dark for 10 minutes at room temperature before measurement of luminescence intensity with Envision instrument. The raw data were expressed in RLU. Results were expressed in % of viability relative to DMSO control and an IC50 was calculated based on the concentration-response profile of individual compounds.

| Compound | pIC50 (Kasumi-1 cells) | pIC50 [1] | pIC50 (Caov-3 cells) |
| --- | --- | --- | --- |
| O=C(Nc1cncc(N2CC3CC3C2)n1)C1(c2ccc(N3CCC[C@@H](NCC4CCC4)C3)cn2)COC1 (stereo partly drawn) [Compound 270, N-(6-(3-azabicyclo[3.1.0]hexan-3-yl)pyrazin-2-yl)-3-(5-((R)-3-((cyclobutylmethyl)amino)piperidin-1-yl)pyridin-2-yl)oxetane-3-carboxamide] | ≥ 6.30 | ≥ 7.30 | ≥ 6.30 |
| CC(n1cc(-c2cncc(N3CC(C(F)F)C3)c2)nn1)n1ccc(N2CCC[C@@H](NCC3CC3)C2)cc1=O (single isomer, unassigned) [Compound 209] | 5.30 to 6.30 | ≥ 7.30 | 5.30 to 6.30 |
| COc1cncc(-c2cn(Cc3ccc(N4CCC[C@@H](NCC5CCC5)C4)cn3)nn2)c1 [Compound 087, (R)-N-(cyclobutylmethyl)-1-(6-((4-(5-methoxypyridin-3-yl)-1H-1,2,3-triazol-1-yl)methyl)pyridin-3-yl)piperidin-3-amine] | 5.30 to 6.30 | ≥ 7.30 | 5.30 to 6.30 |
| CC(n1cnc(-c2cncc(N3CCCC3)c2)c1)n1ccc(N2CCC[C@@H](NCC3CC3)C2)cc1=O (mixture of isomers) [Compound 252, 4-((R)-3-((cyclopropylmethyl)amino)piperidin-1-yl)-1-(1-(4-(5-(pyrrolidin-1-yl)pyridin-3-yl)-1H-imidazol-1-yl)ethyl)pyridin-2(1H)-one] | ≥ 6.30 | ≥ 7.30 | ≥ 6.30 |
| COc1cncc(-c2cn(Cc3ccc(N4CCC[C@@H](NCC5CCC5)C4)nc3)nn2)c1 [Compound 086, (R)-N-(cyclobutylmethyl)-1-(5-((4-(5-methoxypyridin-3-yl)-1H-1,2,3-triazol-1-yl)methyl)pyridin-2-yl)piperidin-3-amine] | 5.30 to 6.30 | ≥ 7.30 | 5.30 to 6.30 |
| COc1cc(-c2cn(Cc3ccc(N4CCC[C@@H](NCC5CCC5)C4)nc3)nn2)c2cn[nH]c2c1 [Compound 040, (R)-N-(cyclobutylmethyl)-1-(5-((4-(6-methoxy-1H-indazol-4-yl)-1H-1,2,3-triazol-1-yl)methyl)pyridin-2-yl)piperidin-3-amine] | ≥ 6.30 | ≥ 7.30 | ≥ 6.30 |
| COc1cncc(-c2cn(C(C)c3ccc(N4CCC[C@@H](NCC5CCC5)C4)nc3)nn2)c1 (single isomer, unassigned) [Compound 071] | 5.30 to 6.30 | ≥ 7.30 | 5.30 to 6.30 |
| CC(n1cc(-c2cncc(N3CC[C@H](F)C3)n2)nn1)n1ccc(N2CCC[C@@H](NCC3CC3)C2)cc1=O (single isomer, unassigned) [Compound 241] | ≥ 6.30 | ≥ 7.30 | ≥ 6.30 |
| CC(n1cc(-c2cncc(N3CC4(CCC4)C3)c2)nn1)n1ccc(N2CCC[C@@H](NCC3CCC3)C2)cc1=O (single isomer, unassigned) [Compound 193] | ≥ 6.30 | ≥ 7.30 | ≥ 6.30 |
| COc1cncc(-c2cn(Cc3ccc(N4CCC[C@@H](NCC5CCC5)C4)nn3)nn2)c1 [Compound 012, (R)-N-(cyclobutylmethyl)-1-(6-((4-(5-methoxypyridin-3-yl)-1H-1,2,3-triazol-1-yl)methyl)pyridazin-3-yl)piperidin-3-amine] | 5.30 to 6.30 | ≥ 7.30 | 5.30 to 6.30 |
| CC(c1ccc(N2CCC[C@@H](NCC3CCC3)C2)cn1)n1cc(-c2cncc(-n3cccn3)n2)nn1 (single isomer, unassigned) [Compound 293] | 5.30 to 6.30 | ≥ 7.30 | 5.30 to 6.30 |
| FC1(F)CC(c2ccc(N3CCC[C@@H](NCC4CC4)C3)cn2)(n2cc(-c3cncc(C4CC4)c3)nn2)C1 [Compound 315, (R)-N-(cyclopropylmethyl)-1-(6-(1-(4-(5-cyclopropylpyridin-3-yl)-1H-1,2,3-triazol-1-yl)-3,3-difluorocyclobutyl)pyridin-3-yl)piperidin-3-amine] | 5.30 to 6.30 | ≥ 7.30 | 5.30 to 6.30 |
| c1cc(C2(n3cc(-c4cncc(C5CC5)n4)nn3)COC2)ncc1N1CCC[C@@H](NCC2CCC2)C1 [Compound 283, (R)-N-(cyclobutylmethyl)-1-(6-(3-(4-(6-cyclopropylpyrazin-2-yl)-1H-1,2,3-triazol-1-yl)oxetan-3-yl)pyridin-3-yl)piperidin-3-amine] | ≥ 6.30 | ≥ 7.30 | ≥ 6.30 |
| c1ncc(C2CC2)cc1-c1cn(C2(c3ccc(N4CCC[C@@H](NCC5CCC5)C4)cn3)COC2)nn1 [Compound 306, (R)-N-(cyclobutylmethyl)-1-(6-(3-(4-(5-cyclopropylpyridin-3-yl)-1H-1,2,3-triazol-1-yl)oxetan-3-yl)pyridin-3-yl)piperidin-3-amine] | ≥ 6.30 | ≥ 7.30 | ≥ 6.30 |
| CC(c1cnn(-c2cncc(N(C)C)n2)c1)n1ccc(N2CCC[C@@H](NCC3CC3)C2)cc1=O (single isomer, unassigned) [Compound 225] | ≥ 6.30 | ≥ 7.30 | ≥ 6.30 |
| CC(n1cc(-c2cncc(N3CC4(C3)CC4(F)F)n2)nn1)n1ccc(N2CCC[C@@H](NCC3CC3)C2)cc1=O (single isomer, unassigned) [Compound 254] | ≥ 6.30 | ≥ 7.30 | ≥ 6.30 |
| COc1cc(-c2nnn(C(C)n3ccc(N4CCC[C@@H](NCC5CCC5)C4)cc3=O)n2)c2cn[nH]c2c1 (single isomer, unassigned) [Compound 210] | 5.30 to 6.30 | ≥ 7.30 | ≥ 6.30 |
| CC(n1cc(-c2cncc(N3CC4(CC4)C3)n2)nn1)n1ccc(N2CCC[C@@H](NCC3CC3)C2)cc1=O (single isomer, unassigned) [Compound 247] | ≥ 6.30 | ≥ 7.30 | ≥ 6.30 |
| O=C(Nc1cc(=O)n2ccccc2n1)C1(c2ccc(N3CCC[C@@H](NCC4CC4)C3)cn2)COC1 [Compound 217, (R)-3-(5-(3-((cyclopropylmethyl)amino)piperidin-1-yl)pyridin-2-yl)-N-(4-oxo-4H-pyrido[1,2-a]pyrimidin-2-yl)oxetane-3-carboxamide] | ≥ 6.30 | ≥ 7.30 | ≥ 6.30 |
| c1ncc(C2CC2)cc1-c1nnc(C2(c3ccc(N4CCC[C@@H](NCC5CC5)C4)cn3)COC2)o1 [Compound 344, (R)-N-(cyclopropylmethyl)-1-(6-(3-(5-(5-cyclopropylpyridin-3-yl)-1,3,4-oxadiazol-2-yl)oxetan-3-yl)pyridin-3-yl)piperidin-3-amine] | 5.30 to 6.30 | 6.30 to 7.30 | < 5.30 |
| CC(n1cc(-c2cncc(N3CC4(COC4)C3)c2)nn1)n1ccc(N2CCC[C@@H](NCC3CCC3)C2)cc1=O (single isomer, unassigned) [Compound 191] | 5.30 to 6.30 | ≥ 7.30 | ≥ 6.30 |
| CC(c1cnn(-c2cncc(N3CCCC3)n2)c1)n1ccc(N2CCC[C@@H](NCC3CC3)C2)cc1=O (single isomer, unassigned) [Compound 220] | ≥ 6.30 | ≥ 7.30 | ≥ 6.30 |
| COc1cncc(-c2cn([C@H](C)n3ccc(N4CCC[C@@H](NCC5CCC5)C4)cc3=S)nn2)c1 [Compound 116, 4-((R)-3-((cyclobutylmethyl)amino)piperidin-1-yl)-1-((R)-1-(4-(5-methoxypyridin-3-yl)-1H-1,2,3-triazol-1-yl)ethyl)pyridine-2(1H)-thione] | ≥ 6.30 | ≥ 7.30 | ≥ 6.30 |
| COc1cc(-c2cn(Cc3cnc(N4CCCC(NCC5CCC5)C4)cn3)nn2)c2cn[nH]c2c1 (stereo not drawn) [Compound 047, N-(cyclobutylmethyl)-1-(5-((4-(6-methoxy-1H-indazol-4-yl)-1H-1,2,3-triazol-1-yl)methyl)pyrazin-2-yl)piperidin-3-amine] | 5.30 to 6.30 | ≥ 7.30 | < 5.30 |
| CC(c1ccc(N2CCC[C@@H](NCC3CCC3)C2)cc1)n1cc(-c2cncc(N(C)C)c2)nn1 (stereo partly drawn) [Compound 189, 5-(1-(1-(4-((R)3-((cyclobutylmethyl)amino)piperidin-1-yl)phenyl)ethyl)-1H-1,2,3-triazol-4-yl)-N,N-dimethylpyridin-3-amine] | ≥ 6.30 | ≥ 7.30 | ≥ 6.30 |
| CC(c1ccc(N2CCC[C@@H](NCC3CCC3)C2)nn1)n1cc(-c2cncc(N3CCCC3)n2)nn1 (single isomer, unassigned) [Compound 285] | ≥ 6.30 | ≥ 7.30 | ≥ 6.30 |
